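Cultured in 96-well plates, cells were exposed to test compound for 48 hours across five concentrations. TGI: concentration producing complete growth inhibition.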
Assays:
Assay in all cases: DTP human tumour cell line panel, 48 h
[1] = system: A498 renal
[2] = system: BT-549 breast
[3] = system: EKVX NSCLC
[4] = system: IGROV1 ovarian
[5] = system: K-562 leukemia
[6] = system: LOX IMVI melanoma
[7] = system: NCI-H23 lung
[8] = system: OVCAR-5 ovarian
[9] = system: RPMI-8226 leukemia
[10] = system: SN12C renal
[11] = system: SNB-19 CNS
[12] = system: SW-620 colon

Compound	TGI [1] [µM]	TGI [2] [µM]	TGI [3] [µM]	TGI [4] [µM]	TGI [5] [µM]	TGI [6] [µM]	TGI [7] [µM]	TGI [8] [µM]	TGI [9] [µM]	TGI [10] [µM]	TGI [11] [µM]	TGI [12] [µM]
COc1c2ccccc2c(OC)c2nc(C)ccc12	> 100	> 100	> 100	> 100	> 78.6	56.1	> 100	> 100	> 100	> 100	> 100	> 100
O=[N+]([O-])c1ccc2[nH]ncc2c1Cl	> 100	89.7	53.8	39.1	> 100	38.9	–	62.5	61.2	> 100	> 100	> 100
O=c1c2cccnc2cc(-c2ccccc2)n1CCO	> 100	> 100	> 100	> 100	> 100	> 100	> 100	> 100	> 100	> 100	> 100	> 100
CCCCCC(CO)C(O)(C(F)(F)F)C(F)(F)F (stereo not given)	> 10	> 10	> 10	> 10	> 10	> 10	> 10	> 10	> 10	> 10	> 10	> 10
CC(=O)OC1COC(n2c(-c3ccc(Cl)cc3)cc(-c3ccccc3)c(C#N)c2=S)C(OC(C)=O)C1OC(C)=O (stereo not given)	34.1	> 81.8	> 100	> 31.6	> 59.8	15.5	28.3	> 100	> 100	31.8	> 79.6	> 100
O=c1[nH]nc(Cc2ccccc2)n1/N=C/c1ccccc1Cl	> 100	> 100	> 100	> 100	> 100	> 100	> 100	> 100	> 100	> 100	> 100	> 100
CN(C(=O)Cc1ccc(Cl)c(Cl)c1)[C@@H]1CCCC[C@H]1[N+]1(C)CC=CC1	> 100	> 100	> 100	> 100	> 100	> 100	> 100	> 100	> 100	> 100	> 100	> 100
COc1ccc(/C=C2\CCCCCC2=O)cc1	> 100	> 100	> 100	> 100	> 100	> 100	> 100	> 100	> 100	> 100	> 100	> 100
[O-][n+]1onc(-c2ccccc2)c1CN1CCOCC1	> 100	> 100	> 100	> 100	> 100	> 100	> 100	> 100	> 100	> 100	> 100	> 100
Nc1cn(Cc2ccccc2)c2nc(/C=C3/C=CC=CC3=O)c(O)n12	> 100	> 100	> 100	> 100	> 100	> 100	> 100	> 100	> 100	> 100	> 100	> 100
Cc1cc(NCCCCCCCCCC[n+]2c(C)cc(N)c3ccccc32)c2ccccc2n1	15.4	> 100	> 100	17.3	2.36	–	6.54	24.7	2.28	5.85	–	21.2
O=c1oc2ccccc2c(O)c1C(c1ccc(/C=C/c2ccccc2)cc1)c1c(O)c2ccccc2oc1=O	> 100	56.2	> 100	> 100	> 100	73.3	> 100	–	> 100	53.9	> 100	> 100
O=C(CCc1ccc(O)cc1)NCCc1cccc(OCc2ccccc2)c1	> 100	45.6	> 100	> 100	65.9	30.4	71.6	> 100	–	> 100	> 100	–
NC(=O)C(c1ccccc1)N1OC2C(=O)N(c3cccc4ccccc34)C(=O)C2C1c1c2ccccc2c(Cl)c2ccccc12 (stereo not given)	37.4	22	30	39.8	> 50	13.6	26	19.3	–	16.3	18.9	> 50
CCOP(=O)(OCC)c1ccc(=O)[nH]c1-c1cccs1	> 100	> 100	> 100	> 100	> 100	–	> 100	> 100	> 100	> 100	> 100	> 100
COC1=C(N2CC2)C(=O)c2nc3n(c2C1=O)CCC3	2.86	2.39	–	3.15	–	2.15	2.34	3.46	0.336	2.95	2.92	2.19
Cn1c(NS(=O)(=O)c2ccccc2)nc2ccccc21	> 100	> 100	> 100	> 100	> 100	–	> 100	> 100	> 100	> 100	> 100	> 100
O=C(O)c1ccc(Nc2nc3ccccc3nc2-c2cccs2)cc1	> 100	> 100	> 100	> 100	> 100	> 100	> 100	> 100	> 100	> 100	–	> 100
COc1ccc(C(c2c[nH]c3ccc(Br)cc23)c2c[nH]c3ccc(Br)cc23)cc1	2.29	3.16	1.49	0.803	0.423	0.314	1.47	1.2	0.543	–	1.76	1.1
